Experimental data reported in patent US4732972A, “Polypeptides having growth hormone releasing activity” (Hoffmann-La Roche Inc., priority 1985, dated 1988).
Ends that are not written are not given here.

Assays:
[1] = system: rat pituitary cells; test: Growth hormone release in rat pituitary cells in tissue culture (RIA for rat growth hormone); type: cell-based; settings: for Growth Hormone Released, Percentage of Control / Growth Hormone Released: 3 hours incubation; for Growth Hormone Released: control 82
Procedure: The biological activity of (Leu^27)-GRF(1-44)-OH was compared with that of natural GRF(1-44)-NH2 which was isolated from a human pancreatic tumor of an individual suffering from acromegaly (Salk Institute standard hp-GRF-NH2 (NL-A-10)). The assay for biological activity, which is based on the ability to stimulate production of growth hormone in rat pituitary cells in tissue culture, was performed in the following manner.
Pituitaries from 30-40 male Sprague-Dawley rats (175 g) were removed aseptically after decapitation. The anterior lobes were collected, washed 3 times in sterile Hepes buffer (0.025M) (pH 7.35) and dispersed at 37° C. in 20-30-ml Hepes buffer (pH 7.35) containing collagenase (4 mg per ml) and Dispase (Protease grade II, 2 mg per ml). After gentle 100-110-min vortexing and trituration by Pasteur pipette, the dispersed cells were separated by centrifugation (150×g, 4 min) and re-suspended in Hepes buffer containing neuraminidase (8 μg/ml), and 200 μg/ml ethylenedinitrilotetraacetic acid (EDTA) disodium salt pH 7.35, for 10 min. The cells were washed twice with plating medium and plated on multiwell-plates (1.5×10^5 cells per ml) using the following defined medium: F-12/DMEM/(6:3:1) (Gibco: 430-1700/430-1600/320-2591) with 2 g BSA/l., 2.38 g Hepes/l, 50 mg Garamycin/l (Schering Co.). The medium in each well was supplemented either with (Leu^27)-GRF(1-44)-OH or natural GRF(1-44)-NH2 at concentrations ranging from 3.1 to 200 fmol. per ml. of medium. Control wells contained no supplement. Plating was done with this medium added with 2% fetal calf serum to ensure rapid fixation of the cells. On the fourth day the cells were washed twice with the defined medium without fetal calf serum. Finally 900 μl of defined medium was added to each well plus 100 μl of the same medium containing each individual treatment, in triplicate. After 3 hours of incubation the medium was collected and diluted as required to conduct radioimmunoassays (RIAs) for rat growth hormone. RIAs were conducted using Sinha's anti-murine GH immune serum.

[2] = system: growth hormone release; settings: compared with amidated 44 amino acid GRF; cited from earlier work

| Molecule | Relative potency compared to the Salk Institute standard ([1]; computerized analysis of the data of Tables 1 and 2, standard = GRF(1-44)-NH2) | Growth hormone releasing activity compared with GRF(1-44)-NH2 (in words) ([1]; data of Tables 1 and 2) | Growth Hormone Released, Percentage of Control ([1]; dose 3.1 f mol./ml.) | Growth Hormone Released ([1]; dose 3.1 f mol./ml.) [ng/mL] | Growth Hormone Released, Percentage of Control ([1]; dose 6.3 f mol./ml.) | Growth Hormone Released ([1]; dose 6.3 f mol./ml.) [ng/mL] | Growth Hormone Released, Percentage of Control ([1]; dose 12.5 f mol./ml.) | Growth Hormone Released ([1]; dose 12.5 f mol./ml.) [ng/mL] | Growth Hormone Released, Percentage of Control ([1]; dose 25.0 f mol./ml.) | Growth Hormone Released ([1]; dose 25.0 f mol./ml.) [ng/mL] | Growth Hormone Released, Percentage of Control ([1]; dose 50.0 f mol./ml.) | Growth Hormone Released ([1]; dose 50.0 f mol./ml.) [ng/mL] | Growth Hormone Released, Percentage of Control ([1]; dose 100.0 f mol./ml.) | Growth Hormone Released ([1]; dose 100.0 f mol./ml.) [ng/mL] | Growth Hormone Released, Percentage of Control ([1]; dose 200.0 f mol./ml.) | Growth Hormone Released ([1]; dose 200.0 f mol./ml.) [ng/mL] | Growth hormone released in vitro relative to the amount of peptide administered ([1]; in vitro) | Biological activity after removal of the amide group (in words) [2] |
| --- | --- | --- | --- | --- | --- | --- | --- | --- | --- | --- | --- | --- | --- | --- | --- | --- | --- | --- |
| CC[C@H](C)[C@H](NC(=O)[C@H](C)NC(=O)[C@H](CC(=O)O)NC(=O)[C@H](C)NC(=O)[C@@H](N)Cc1ccc(O)cc1)C(=O)N[C@@H](Cc1ccccc1)C(=O)N[C@H](C(=O)N[C@@H](CC(N)=O)C(=O)N[C@@H](CO)C(=O)N[C@@H](Cc1ccc(O)cc1)C(=O)N[C@@H](CCCNC(=N)N)C(=O)N[C@@H](CCCCN)C(=O)N[C@H](C(=O)N[C@@H](CC(C)C)C(=O)NCC(=O)N[C@@H](CCC(N)=O)C(=O)N[C@@H](CC(C)C)C(=O)N[C@@H](CO)C(=O)N[C@@H](C)C(=O)N[C@@H](CCCNC(=N)N)C(=O)N[C@@H](CCCCN)C(=O)N[C@@H](CC(C)C)C(=O)N[C@@H](CC(C)C)C(=O)N[C@@H](CCC(N)=O)C(=O)N[C@@H](CC(=O)O)C(=O)N[C@H](C(=O)N[C@@H](CC(C)C)C(=O)N[C@@H](CO)C(=O)N[C@@H](CCCNC(=N)N)C(=O)N[C@@H](CCC(N)=O)C(=O)N[C@@H](CCC(N)=O)C(=O)NCC(=O)N[C@@H](CCC(=O)O)C(=O)N[C@@H](CO)C(=O)N[C@@H](CC(N)=O)C(=O)N[C@@H](CCC(N)=O)C(=O)N[C@@H](CCC(=O)O)C(=O)N[C@@H](CCCNC(=N)N)C(=O)NCC(=O)N[C@@H](C)C(=O)N[C@@H](CCCNC(=N)N)C(=O)N[C@@H](C)C(=O)N[C@@H](CCCNC(=N)N)C(=O)N[C@@H](CC(C)C)C(=O)O)[C@@H](C)CC)C(C)C)[C@@H](C)O [(Leu^27)-GRF(1-44)-OH] | 1.063 | about the same level as GRF(1-44)-NH2 or slightly higher | 162 Percentage of Control | 133 | 204 Percentage of Control | 167 | 272 Percentage of Control | 223 | 329 Percentage of Control | 270 | 417 Percentage of Control | 342 | 516 Percentage of Control | 423 | 649 Percentage of Control | 532 | on the order of ten times or more the amount of (Leu^27)-GRF-OH administered | – |
| free acid form of the 44 amino acid GRF: 44 amino acid GRF with the amide group removed, free acid form (YADAIFTNSYRKVLGQLSARKLLQDIMSRQQGESNQERGARARL-OH; UniProt P01286 32-75, looked up) | – | – | – | – | – | – | – | – | – | – | – | – | – | – | – | – | – | significant loss of biological activity |
